Two molecules from US11613546B2, “Substituted pyridotriazine compounds and uses thereof” (Gilead Sciences, Inc., priority 2021, dated 2023) can be followed below.

Where two headings read alike, the source gives them in different places.

As usually defined, the CC50 is the concentration giving 50% cytotoxicity. One may read the half-life as the time in which the quantity being followed falls by half.

The test system of one data set is HIV-1 (IIIB). The data set can be described thus: Antiviral assay in MT-4 cells. The format is cell-based. Conditions: HIV-1 IIIB infected MT-4 cells, 5 days, Cell Titer Glo, read-out: MT4 EC50. The gist of the method: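 MT-4 cells infected with a 1:250 dilution of HIV-1 IIIB stock were incubated with serially diluted (1:3) compound for 5 days at 37 °C. Viability read by Cell Titer Glo luminescence; EC50 is the concentration giving 50% decrease in signal, from sigmoidal dose-response fits.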
For orientation: Cellular ATP, detected with luciferase, serves as a proxy for viable cell number.

A short description of data set [1]: Cytotoxicity assay in MT-4 cells. The format is cell-based. Conditions: human, uninfected MT-4 cells, 5 days, Cell Titer Glo; read-out: CC50. The gist of the method: (§1)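 Uninfected MT-4 cells were incubated with 1:3 serially diluted compound in RPMI/10% FBS for 5 days at 37° C. Viability was read by CellTiter-Glo luminescence, with 10 μM puromycin as the baseline cytotoxicity control. Values are the concentration giving a 50% decrease in luminescence, from sigmoidal dose-response fits.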

Another data set concerns pLai RLuc reporter virus. Description: HIV MT-4 serum shift antiviral reporter assay. The format is cell-based. The method in brief:
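MT-4 cells pre-infected with pLai RLuc virus for 2 h at 37 °C, then incubated 72 h at 37 °C with compound in medium (RPMI, 10% FBS) with or without 50% human serum; Renilla luminescence read. EC50 from sigmoidal fit; serum shift = EC50(HS/CCM)/EC50(CCM).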
On the technique in general: A reporter such as luciferase makes a cellular process visible.

A short description of data set [2]: Monkey PK after single-dose intravenous infusion. The format is in vivo, monkeys. The method, then:
Test compound PK was determined in monkeys (Labcorp, Madison, Wis.) following a single-dose intravenous infusion for 30 minutes. The dosing vehicle was 10% N-methylpyrrolidone; 50% polyethylene glycol 300 and 40% water (pH 8.3) for intravenous administration in monkeys. Serial blood samples were collected at predose, 0.25, 0.48 (before end of infusion), 0.58, 0.75, 1, 1.5, 2, 4, 8, 12, 24, 48, 72, 96, 120, 144, and 168 hours postdose (based on start of infusion) and plasma test compound concentrations were quantified using an LC-MS/MS method.
Nonclinical plasma samples were prepared by addition of 200 μl cold acetonitrile/internal standard solution to 96-well plates containing 50 μl aliquots of each plasma sample. After protein precipitation, each of the supernatants (50 μl) were transferred to clean 96-well plates and diluted with 450 μl of water. The sample injection volume was 2 μl. Samples were analyzed by a multiple reaction monitoring LC-MS/MS method. LC-MS system consisted of a Cohesive LX-2 multiplex with two identical DIONEX UltiMate 3000 RS pumps, Hypersil Gold C18 HPLC column (50×2.1 mm, […]; Thermo Fisher Scientific), and the ABSciex QTRAP5500 Mass Spectrometer LC-MS/MS system. Chromatography was performed using 0.1% formic acid and 1% isopropyl alcohol in aqueous solution (MP A), and 0.1% formic acid and 1% isopropyl alcohol in acetonitrile (MP B).
Plasma PK parameters for test compounds in monkeys were estimated via noncompartmental analysis using the software program Phoenix WinNonlin, version 6.3 (Pharsight Corporation, Mountain View, Calif.). The following plasma PK parameters were estimated in nonclinical species (as appropriate): observed peak plasma concentration (Cmax), time to reach Cmax (Tmax), last quantifiable plasma concentration (Clast), tin, time of Clast (Tlast), area under the plasma concentration-time curve (AUC) from time 0 to Clast (AUClast), AUC from time 0 to infinity (AUCinf), CL, mean residence time (MRT), and volume of distribution at steady state (Vss).

For the next data set, the system named is MT-4 cells. The data set can be described thus: Cytotoxicity assay in MT-4 cells. The format is cell-based. The method in brief:
as §1

Regarding `C[C@H]1C=C[C@@H](CF)N2CN1C(=O)c1c(O)c(=O)c(C(=O)NCc3c(F)cc(F)cc3F)cn12` [Example C76, (1S,2S,5S)-2-(fluoromethyl)-8-hydroxy-5-methyl-7,9-dioxo-N-(2,4,6-trifluorobenzyl)-2,5,7,9-tetrahydro-1,6-methanopyrido[1,2-b][1,2,5]triazonine-10-carboxamide], the EC50 in the data set on HIV-1 (IIIB) (Human immunodeficiency virus 1, IIIB, MT4, 120 h) came to 1 nM; with pLai RLuc reporter virus (Human immunodeficiency virus 1, 72 h, read-out: RLUC 50% HS (nM), HS/CCM: 50% human serum, 72 h, Renilla Glo) it was 265 nM; with pLai RLuc reporter virus (Human immunodeficiency virus 1, 72 h, read-out: RLUC CCM (nM), cell culture media (RPMI, 10% FBS), 72 h, Renilla Glo), 0.42 nM. Further, the half-maximal cytotoxic concentration (CC50) at 5 days in data set [1] was determined as 16400 nM. In addition, the half-life in data set [2] (cynomolgus, monkeys, single-dose intravenous infusion for 30 minutes, plasma, read-out: Cyno half-life (converted)) was 60 h.
Take `O=C(NCc1c(F)cc(F)cc1F)c1cn2c(c(O)c1=O)C(=O)N1CCCCN2C1` [Example C109, (1S)-8-hydroxy-7,9-dioxo-N-(2,4,6-trifluorobenzyl)-2,3,4,5,7,9-hexahydro-1,6-methanopyrido[1,2-b][1,2,5]triazonine-10-carboxamide]: the EC50 is 1.2 nM with HIV-1 (IIIB); 11.4 nM with pLai RLuc reporter virus (HS/CCM: 50% human serum, 72 h, Renilla Glo, read-out: RLUC 50% HS); 0.62 nM in the data set on pLai RLuc reporter virus (cell culture media (RPMI, 10% FBS), 72 h, Renilla Glo, read-out: RLUC CCM). In the data set with MT-4 cells, this molecule registered a CC50 of 15200 nM. Also, the “Cyno half-life” value in data set [2] (in vivo, iv) worked out at 4.7 h.
